Measured values published in US6737383B1, “Herbicidal oxadiazolidines” (priority 1999, dated 2004).

Assays:
morningglory = assay: Test B pre/postemergence morningglory; type: in vivo, Ipomoea hederacea
Procedure, shortened: (§1)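 Test chemicals in a non-phytotoxic solvent mixture with surfactant were sprayed preemergence onto planted seeds and postemergence onto plants 2 to 18 cm tall (1- to 4-leaf stage). After twelve to sixteen days in a greenhouse, injury was visually rated against untreated controls from 0 (no effect) to 10 (complete control).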

surinam grass = assay: Test B pre/postemergence surinam grass; type: in vivo, Brachiaria decumbens
Procedure, shortened: as §1

blackgrass = assay: Test B pre/postemergence blackgrass; type: in vivo, Alopecurus myosuroides
Procedure, shortened: as §1

bamyardgrass = assay: Test B flood test barnyardgrass; type: in vivo, Echinochloa crus-galli
Procedure, shortened: (§2)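 Each value is a visual injury score relative to controls, with 10 meaning complete control and 0 no effect. Evaluation took place twelve to sixteen days after the 2-leaf-stage plants were treated and kept in the greenhouse.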

smallflower flatsedge = assay: Test B flood test smallflower flatsedge; type: in vivo, Cyperus difformis
Procedure, shortened: as §2

bedstraw = assay: Test B pre/postemergence bedstraw; type: in vivo, Galium aparine
Procedure, shortened: as §1

soybean = assay: Test B pre/postemergence soybean; type: in vivo, Glycine max
Procedure, shortened: as §1

duck salad = assay: Test B flood test duck salad; type: in vivo, Heteranthera limosa
Procedure, shortened: as §2

pigweed = assay: Test B pre/postemergence pigweed; type: in vivo, Amaranthus retroflexus
Procedure, shortened: as §1

giant foxtail = assay: Test B pre/postemergence giant foxtail; type: in vivo, Setaria faberii
Procedure, shortened: as §1

wheat = assay: Test B pre/postemergence wheat; type: in vivo, Triticum aestivum
Procedure, shortened: as §1

cocklebur = assay: Test B pre/postemergence cocklebur; type: in vivo, Xanthium strumarium
Procedure, shortened: as §1

purple nutsedge = assay: Test B pre/postemergence purple nutsedge; type: in vivo, Cyperus rotundus
Procedure, shortened: as §1

rape = assay: Test B pre/postemergence rape; type: in vivo, Brassica napus
Procedure, shortened: as §1

wild oat = assay: Test B pre/postemergence wild oat; type: in vivo, Avena fatua
Procedure, shortened: as §1

velvetleaf = assay: Test B pre/postemergence velvetleaf; type: in vivo, Abutilon theophrasti
Procedure, shortened: as §1

[1] = Postemergence, Rate 250 g/ha, scale 0 to 10, 0 is no effect, 10 is complete control
[2] = Postemergence, Rate 500 g/ha, scale of 0 to 10 where 0 is no effect and 10 is complete control
[3] = Preemergence, Rate 62 g/ha, scale 0 to 10 (0 no effect, 10 complete control)
[4] = Preemergence, Rate 125 g/ha, scale of 0 to 10 where 0 is no effect and 10 is complete control
[5] = Preemergence, Rate 250 g/ha, scale 0 to 10, 0 is no effect, 10 is complete control
[6] = Preemergence, Rate 500 g/ha, scale 0 to 10, 0 is no effect, 10 is complete control
[7] = Rate 62 g/ha, Postemergence, scale of 0 to 10 where 0 is no effect and 10 is complete control
[8] = Postemergence, Rate 125 g/ha, scale 0 to 10, 0 is no effect, 10 is complete control
[9] = Preemergence, Rate 250 g/ha, scale of 0 to 10 where 0 is no effect and 10 is complete control
[10] = Rate 62 g/ha, flood test species, Pre-emergence, visual evaluation after twelve to sixteen days
[11] = Rate 125 g/ha, under heading Pre-emergence, flood test species, visual evaluation after twelve to sixteen days
[12] = Rate 250 g/ha, Pre-emergence, flood-test species, scale 0 to 10, 0 is no effect, 10 is complete control
[13] = Rate 500 g/ha, Pre-emergence, flood test species, scale 0 to 10 (0 no effect, 10 complete control)

CC1CC1Cn1c(=O)on(C(=O)N(c2ccc(F)cc2)C(C)C)c1=O (stereo not drawn) [Compound 402]
Plant response rating, Morningglory (morningglory; [1]): 8
Morningglory plant response rating (morningglory; [2]): 10
Plant response rating, Morningglory (morningglory; [3]): 0
Plant response rating, Morningglory (morningglory; [4]): 0
Morningglory plant response rating (morningglory; [5]): 2
Morningglory plant response rating (morningglory; [6]): 2
Morningglory plant response rating (morningglory; [7]): 3
Plant response rating, B. signalgrass (surinam grass; [8]): 2
Plant response rating, B. signalgrass (surinam grass; [1]): 2
B. signalgrass plant response rating (surinam grass; [2]): 5
Plant response rating, B. signalgrass (surinam grass; [3]): 0
Plant response rating, B. signalgrass (surinam grass; [4]): 3
B. signalgrass plant response rating (surinam grass; [9]): 4
B. signalgrass plant response rating (surinam grass; Preemergence, Rate 500 g/ha, scale of 0 to 10 where 0 is no effect and 10 is complete control): 9
B. signalgrass plant response rating (surinam grass; [7]): 0
Blackgrass plant response rating (blackgrass; [2]): 9
Plant response rating, Blackgrass (blackgrass; [3]): 3
Plant response rating, Blackgrass (blackgrass; [4]): 7
Blackgrass plant response rating (blackgrass; [9]): 9
Blackgrass plant response rating (blackgrass; [6]): 10
Plant response rating, Barnyardgrass (0 to 10 scale, 0 is no effect, 10 is complete control) (bamyardgrass; [10]): 5
Barnyardgrass plant response rating (0 to 10 scale, 0 is no effect, 10 is complete control) (bamyardgrass; [11]): 5
Barnyardgrass plant response rating (bamyardgrass; [12]): 8
Barnyardgrass plant response rating (bamyardgrass; [13]): 9
Plant response rating, S. Flatsedge (0 to 10 scale, 0 is no effect, 10 is complete control) (smallflower flatsedge; [10]): 0
S. Flatsedge plant response rating (0 to 10 scale, 0 is no effect, 10 is complete control) (smallflower flatsedge; [11]): 0
S. Flatsedge plant response rating (smallflower flatsedge; [12]): 0
S. Flatsedge plant response rating (smallflower flatsedge; [13]): 2
Plant response rating, Bedstraw (bedstraw; [8]): 3
Plant response rating, Bedstraw (bedstraw; [1]): 7
Bedstraw plant response rating (bedstraw; [2]): 8
Plant response rating, Bedstraw (bedstraw; [3]): 2
Plant response rating, Bedstraw (bedstraw; [4]): 3
Bedstraw plant response rating (bedstraw; [6]): 10
Bedstraw plant response rating (bedstraw; [7]): 3
Plant response rating, Soybean (soybean; [1]): 6
Soybean plant response rating (soybean; [2]): 8
Plant response rating, Soybean (soybean; [3]): 0
Plant response rating, Soybean (soybean; [4]): 0
Soybean plant response rating (soybean; [5]): 0
Soybean plant response rating (soybean; [6]): 1
Soybean plant response rating (soybean; [7]): 4
Plant response rating, Ducksalad (0 to 10 scale, 0 is no effect, 10 is complete control) (duck salad; [10]): 0
Ducksalad plant response rating (0 to 10 scale, 0 is no effect, 10 is complete control) (duck salad; [11]): 0
Ducksalad plant response rating (duck salad; [12]): 0
Ducksalad plant response rating (duck salad; [13]): 0
Plant response rating, Redroot pigweed (pigweed; [1]): 5
Redroot pigweed plant response rating (pigweed; [2]): 7
Plant response rating, Redroot pigweed (pigweed; [3]): 0
Plant response rating, Redroot pigweed (pigweed; [4]): 2
Redroot pigweed plant response rating (pigweed; [5]): 4
Redroot pigweed plant response rating (pigweed; [6]): 10
Redroot pigweed plant response rating (pigweed; [7]): 2
Plant response rating, Giant foxtail (giant foxtail; [8]): 8
Plant response rating, Giant foxtail (giant foxtail; [1]): 9
Giant foxtail plant response rating (giant foxtail; [2]): 9
Plant response rating, Giant foxtail (giant foxtail; [3]): 10
Plant response rating, Giant foxtail (giant foxtail; [4]): 10
Giant foxtail plant response rating (giant foxtail; [5]): 10
Giant foxtail plant response rating (giant foxtail; [6]): 10
Giant foxtail plant response rating (giant foxtail; [7]): 8
Wheat plant response rating (wheat; [2]): 0
Plant response rating, Wheat (wheat; [3]): 0
Plant response rating, Wheat (wheat; [4]): 0
Wheat plant response rating (wheat; [5]): 3
Wheat plant response rating (wheat; [6]): 6
Wheat plant response rating (wheat; [7]): 0
Plant response rating, Cocklebur (cocklebur; [8]): 1
Plant response rating, Cocklebur (cocklebur; [1]): 4
Cocklebur plant response rating (cocklebur; [2]): 5
Plant response rating, Cocklebur (cocklebur; [3]): 0
Plant response rating, Cocklebur (cocklebur; [4]): 0
Cocklebur plant response rating (cocklebur; [5]): 0
Cocklebur plant response rating (cocklebur; [6]): 0
Cocklebur plant response rating (cocklebur; [7]): 0
Plant response rating, Nutsedge (purple nutsedge; [1]): 0
Nutsedge plant response rating (purple nutsedge; [2]): 0
Plant response rating, Nutsedge (purple nutsedge; [3]): 0
Plant response rating, Nutsedge (purple nutsedge; [4]): 0
Nutsedge plant response rating (purple nutsedge; [5]): 0
Nutsedge plant response rating (purple nutsedge; [6]): 0
Nutsedge plant response rating (purple nutsedge; [7]): 0
Plant response rating, Rape (rape; [1]): 8
Rape plant response rating (rape; [2]): 9
Plant response rating, Rape (rape; [3]): 0
Plant response rating, Rape (rape; [4]): 1
Rape plant response rating (rape; [5]): 5
Rape plant response rating (rape; [6]): 8
Rape plant response rating (rape; [7]): 1
Wild oats plant response rating (wild oat; [2]): 3
Plant response rating, Wild oats (wild oat; [3]): 1
Plant response rating, Wild oats (wild oat; [4]): 4
Wild oats plant response rating (wild oat; [5]): 8
Wild oats plant response rating (wild oat; [6]): 10
Wild oats plant response rating (wild oat; [7]): 0
Plant response rating, Velvetleaf (velvetleaf; [1]): 4
Velvetleaf plant response rating (velvetleaf; [2]): 4
Plant response rating, Velvetleaf (velvetleaf; [3]): 0
Plant response rating, Velvetleaf (velvetleaf; [4]): 0
Velvetleaf plant response rating (velvetleaf; [5]): 3
Velvetleaf plant response rating (velvetleaf; [6]): 8
Velvetleaf plant response rating (velvetleaf; [7]): 0
